Data published in PubChem BioAssay (NCI).
Several values for one entry are separate records, joined by “and”; a condition that tells them apart may be missing. Identical values can stand only once.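 Method: 48-hour compound exposure of cells in 96-well plates, five concentrations, linear interpolation of endpoints. GI50: concentration for 50% inhibition of growth. TGI: concentration producing complete growth inhibition.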

Tests used:
Assay in all cases: NCI tumour cell line growth inhibition, 48 h
MDA-MB-231 breast = test system: MDA-MB-231 breast
NCI/ADR-RES ovarian = test system: NCI/ADR-RES ovarian
SNB-19 CNS = test system: SNB-19 CNS
EKVX NSCLC = test system: EKVX NSCLC
HCC-2998 colon = test system: HCC-2998 colon
ACHN renal = test system: ACHN renal
CCRF-CEM leukemia = test system: CCRF-CEM leukemia
SN12C renal = test system: SN12C renal
SNB-75 CNS = test system: SNB-75 CNS
SK-MEL-28 melanoma = test system: SK-MEL-28 melanoma

Row | Compound | GI50 (MDA-MB-231 breast) | TGI (MDA-MB-231 breast) | GI50 (NCI/ADR-RES ovarian) | TGI (NCI/ADR-RES ovarian) | GI50 (SNB-19 CNS) | TGI (SNB-19 CNS) | GI50 (EKVX NSCLC) | TGI (EKVX NSCLC) | GI50 (HCC-2998 colon) | TGI (HCC-2998 colon) | GI50 (ACHN renal) | TGI (ACHN renal) | GI50 (CCRF-CEM leukemia) | TGI (CCRF-CEM leukemia) | GI50 (SN12C renal) | TGI (SN12C renal) | TGI (SNB-75 CNS) | TGI (SK-MEL-28 melanoma) | GI50 (SNB-75 CNS) | GI50 (SK-MEL-28 melanoma)
1 | Oc1ccc(C(c2ccccc2)(c2ccccc2)c2ccccc2)cc1 | 16.7 µM | 34.2 µM | 15 µM | 28.6 µM | 16.8 µM | 32.2 µM | 15.4 µM | 29.3 µM | 12.7 µM | 25.7 µM | 21.9 µM | 41.4 µM | 21.1 µM | 39.5 µM | 16.9 µM | 31.6 µM | – | – | – | –
2 | CN(C)CCCCN1CCc2c(n(C)c3ccccc23)C1=O | – | > 63.2 µM and 61.9 µM | – | > 100 µM | – | > 100 µM | – | 85.9 µM and > 100 µM | 39.7 µM and 15.9 µM | 64.3 µM and 30.3 µM | – | > 100 µM | – | > 100 µM | – | > 90.1 µM and 98 µM | 71.3 µM and 60.8 µM | 39.7 µM and 31.4 µM | – | –
3 | Nc1c(C(=O)Nc2ccccc2)sc2nc3c(cc12)CCCCCC3 | 0.892 µM | 43.1 µM | 0.332 µM | 3.32 µM | 0.476 µM | 24.9 µM | 0.591 µM | 25.2 µM | 0.485 µM | – | 0.887 µM | 14 µM | 0.345 µM | > 100 µM | 1.57 µM | 60.2 µM | 0.898 µM | 21.8 µM | 0.241 µM | 1.1 µM
4 | Cc1ccc(NC(c2ccccc2)c2ccc3cccnc3c2O)cc1 (stereo unspecified) | – | 13.5 µM | – | 15.2 µM | – | 20 µM | – | 15 µM | – | > 100 µM | – | 15.5 µM | – | 4.27 µM | – | 22.4 µM | 19.2 µM | 33.3 µM | – | –
5 | O=C1/C(=C/c2cccc([N+](=O)[O-])c2)COc2ccc(O)c(O)c21 | 1.47 µM | 2.98 µM | 2.43 µM | 18 µM | 1.55 µM | 2.98 µM | 1.9 µM | 4.1 µM | 1.66 µM | 3.22 µM | 1.36 µM | 2.68 µM | 0.335 µM | 2.43 µM | 1.16 µM | 2.51 µM | 5.72 µM | 2.98 µM | 1.28 µM | 1.56 µM
6 | COc1cc2oc(=O)cc(C)c2cc1[N+](=O)[O-] | – | 71.6 µM | – | > 79.3 µM | – | > 100 µM | – | > 100 µM | – | 22.2 µM | – | > 100 µM | – | > 100 µM | – | 37.2 µM | > 100 µM | 64.6 µM | – | –
7 | C[Si](C)(C)C#CCO[Si](C)(C)C | – | > 92.6 µM | – | > 100 µM | – | > 100 µM | – | > 100 µM | – | > 100 µM | – | > 100 µM | – | > 64 µM | – | > 100 µM | > 100 µM | > 100 µM | – | –
8 | Cc1cc2c(c3c1c1ccccc1n3C)C(=O)C=CC2=O | – | 75 µM | – | > 100 µM | – | > 100 µM | – | > 100 µM | – | > 92.5 µM | – | > 64.6 µM | – | > 24 µM | – | > 82.7 µM | > 100 µM | 47.9 µM | – | –
